Data on 1 substance can be found in patent US20170029531A1, “INHIBITION OF LACTATE DEHYDROGENASE 5 (LDH-5) BINDING, INCORPORATION, INTERNALIZATION AND/OR ENDOCYTOSIS TO IMMUNE CELLS” (Seattle Children's Hospital (dba Seattle Children's …, priority 2014, published 2017).

One data set has as its system Tumor cells. As to the kind of experiment: LDH-5 internalization by tumor cells, flow cytometry (FIGS. 16-19). Conditions: FIG. 16. In kind it is cell-based. The procedure: FIG. 17. Tumor cells internalize LDH-5, which can be reduced by antibody blocking. 10 ug/ml of LDH5 specific monoclonal antibody was added to cells 1 hour prior to culture with LDH5 as described above and evaluated for internalization using flow cytometry to evaluate fluorescence.
FIG. 19. LDH-5 internalization is receptor mediated and Clathrin dependent. LDH5 internalization is reduced with receptor mediated endocytosis inhibitors.
LDH5 internalization is reduced with receptor mediated endocytosis inhibitors. This supports that internalization is mediated by a specific receptor, as opposite to bulk phagocytosis.

The subject of data set [1] is monocytes from healthy donors. Briefly: NKG2D ligand (MICA, MICB, ULBP-1) mRNA induction in monocytes from healthy donors (MHD), qPCR. In kind it is cell-based, human. From the text: FIG. 2. Biochemical purification of tumor-derived Lactate Dehydrogenase, expression in glioma cell lines and verification of LDH-mediated induction of NKG2D ligands on monocytes. (Panel A) Protein purification strategy. […] of U87 glioblastoma cell line supernatant were subjected to ammonium sulfate precipitation. Active fractions were passed over a phenyl Sepharose column and active fractions were then subjected to size exclusion (Superdex 200), followed by ion exchange (MonoS) before Mass Spectroscopy (MS) analysis. (Panel B) Following separation by chromatography, fractions were dialyzed into PBS and cultured with MHD (healthy monocytes) for 18 hours. Whole cell mRNA was reverse transcribed, and induction of MICB and ULBP-1 was analyzed relative to media alone controls. Western blot analysis using a monoclonal antibody to LDH-5 (ab101562) was performed on […] of total protein to confirm the presence of LDH-5 in the active fractions. (Panel C) mRNA isolated from PBMC of healthy donors, 293T cells (as negative controls), and U87, U251, and SF767 glioma cell lines were analyzed for expression of LDHA and LDHB by qPCR. (Panel D) A 1:10 dilution of fresh, unfrozen glioblastoma cell line supernatants was analyzed for total LDH enzymatic activity and expressed as OD 495 nm. (Panel E) Validation of LDH induction of NKG2D ligands in monocytes. Six hundred twenty five U/L of purified, native LDH-5, fresh U87 supernatant, or fresh U87 supernatant in the presence of 100 mM sodium oxamate (NaOx) were cultured with MHD. Eighteen hours later, mRNA was isolated and analyzed for MICA, MICB, and ULBP-1 by qPCR. Values represent induction relative to MHD cultured in media alone. (Panel F) Fresh U87 supernatant, 625 U/L of purified, native LDH-5, LDH-5+0.5 mM Pyruvate (Pyr), or LDH-5+0.5 mM pyruvate and 100 mM NaOx were cultured with MHD. Eighteen hours later, mRNA was isolated and analyzed for MICA, MICB and ULBP-1 by qPCR. Values represent induction relative to MHD cultured in media alone. (Panel G) MHD were cultured with native LDH-5 isolated from liver cells. Eighteen hours later, MICB (black bars) and ULBP-1 (gray bars) were measured by qPCR. (Panel H) Expression of NKG2D and NKp46 on primary human NK cells following a 12 hour incubation with LDH (50 ug/mL) or lactate (20 mM). Cells were surface stained with antibodies directed against CD3, CD56, NKG2D, and NKp46 and analyzed by flow cytometry. The expression level of NKG2D and NKp46 are plotted against CD56. (Panel I) Expression of CD107a on primary human NK cells following IL-2 (1000 U/ml) activation and a 6 hour incubation with LDH (50 ug/mL) or lactate (20 mM). Cells were surface stained with antibodies directed against CD3, CD56, and CD107a and analyzed by flow cytometry. Representative data are shown in the top panels, a summary of percent CD107a+NK cells is shown below. (Panel J) 293T cells were transiently transfected with a pcDNA3.1 (−) vector encoding either LDHA or LDHB, or both constructs. Supernatant was then cultured with CD14-positively selected MHD. Eighteen hours later, MICB and ULBP-1 were measured by qPCR. Values represent induction relative to monocytes cultured in media alone. *P<0.05, **P<0.01.
FIG. 21. Purified native LDH5 or LDH1 was cultured with monocytes from healthy donors. Eighteen hours later, MICB and ULBP-1 were measured by qPCR. Values represent induction relative to monocytes cultured in medium alone. […]
In general terms: Real-time PCR tracks product formation cycle by cycle.

The next data set has as its system primary human NK cells. Briefly: NKG2D expression and CD107a degranulation of primary human NK cells after incubation with LDH or lactate. In kind it is cell-based. As to conditions: LDH 50 ug/mL or lactate 20 mM; 12 hour (NKG2D, NKp46) or 6 hour after IL-2 (CD107a). From the text:
FIG. 2. Biochemical purification of tumor-derived Lactate Dehydrogenase, expression in glioma cell lines and verification of LDH-mediated induction of NKG2D ligands on monocytes. (Panel A) Protein purification strategy. […] of U87 glioblastoma cell line supernatant were subjected to ammonium sulfate precipitation. Active fractions were passed over a phenyl Sepharose column and active fractions were then subjected to size exclusion (Superdex 200), followed by ion exchange (MonoS) before Mass Spectroscopy (MS) analysis. (Panel B) Following separation by chromatography, fractions were dialyzed into PBS and cultured with MHD (healthy monocytes) for 18 hours. Whole cell mRNA was reverse transcribed, and induction of MICB and ULBP-1 was analyzed relative to media alone controls. […] (Panel C) mRNA isolated from PBMC of healthy donors, 293T cells (as negative controls), and U87, U251, and SF767 glioma cell lines were analyzed for expression of LDHA and LDHB by qPCR. (Panel D) A 1:10 dilution of fresh, unfrozen glioblastoma cell line supernatants was analyzed for total LDH enzymatic activity and expressed as OD 495 nm. […] Eighteen hours later, mRNA was isolated and analyzed for MICA, MICB, and ULBP-1 by qPCR. […] Eighteen hours later, mRNA was isolated and analyzed for MICA, MICB and ULBP-1 by qPCR. […] Eighteen hours later, MICB (black bars) and ULBP-1 (gray bars) were measured by qPCR. […]

Data set [2] concerns glioblastoma cell line U87. Briefly: IL-6 gene expression in glioblastoma cell line U87. In kind it is cell-based.
Another data set has as its system U87. As to the kind of experiment: U87 mitochondrial function and viability after overnight LDH5. In kind it is cell-based. Here is the method:
FIG. 30. U87 mitochondrial function. […] U87 were treated overnight with LDH5 then with controls 100 uM FCCP (depolarizer) or 200 ng/mL staurosporine (hyperpolarizer) for 10 min. Cells were then loaded with the mitochondrial membrane potential sensitive dye Mitotracker CMXRos for 15 min then fixed in 2% PF. Fluorescence intensity was measured by flow cytometry.
FIG. 31. U87 mitochondrial function. […] U87 were treated overnight with LDH5. Cells were fixed in 2% PF and immunostained with an anti-mitochondrial antibody and phalloidin (actin) Mitochondrial and cell surface area were calculated by Nuance software.
FIG. 32. U87 mitochondrial function. […] U87 were treated overnight with LDH5 then with 200 ng/mL staurosporine for 5 or 24 hours. Cells were then trypsinized, stained with Annexin 594 and analyzed by flow cytometry.
Experimental wells were pulsed with 50 ug/mL LDH-A488 for 24 hours as indicated (control wells received no LDH) at 37° C. Cells were treated for 2 min with 0.5M acetic acid+150 mM NaCl (pH 2.5), followed by 4 subsequent washes in RPMI+10% FBS. […] (See FIGS. 31-32).

Data set [3] is described as follows: LDH activity after freeze/thaw (colorimetric LDH activity assay). In kind it is physicochemical. As to conditions: FIG. 12. The procedure:
Supernatants and patient sera were analyzed for LDH enzymatic activity using a commercially available colorimetric assay according to the manufacturer's instructions (Sigma-Aldrich). Standard curves were generated using purified native LDH5.

Setting [4] is: 156 U/L enzymatically active LDH5 from human liver, monocytes.
[5] abbreviates: U87 treated overnight with LDH5.

In the case of “LDH5: purified native lactate dehydrogenase isoenzyme 5, alpha only tetramer; fluorescently labeled in uptake tests”, the “Internalization of LDH-5 by tumor cells” value with Tumor cells was “internalize”. In data set [1] (setting [4]), the “MICB gene expression compared with medium alone” value was 7.85 fold induction and the “ULBP-1 gene expression compared with medium alone” value is on record as 13.26 fold induction. Further, the “Lowest concentration of purified native LDH5 that induced transcription of MICB and ULBP-1” value in data set [1] (monocytes from healthy donors, 18 h, qPCR, FIG. 2 panel G) is reported as 156 U/L. The “LDH5 concentration that induced a maximal increase in NKG2D ligand transcription” value in data set [1] (monocytes, concentrations above this induced less transcription) was 625 U/L. For the same substance, in the data set on primary human NK cells, the “NK cell NKG2D expression or degranulation” value is “neither lactate nor LDH-5 alone directly impacted”. Moreover, in data set [2], the IL-6 gene expression entry was “induces IL-6 gene expression”. For the same substance, the “Viability / staurosporine induced apoptosis (Annexin)” value in the data set with U87 (U87 overnight LDH5, then 200 ng/mL staurosporine for 5 or 24 hours) is “does not reduce viability, nor rescue from staurosporine induced apoptosis”. Besides, in the data set with U87 (setting [5]), the “Mitochondrial membrane potential (Mitotracker CMXRos)” value is given as “depolarizes mitochondrial membrane” and the Mitochondrial surface area entry is reported as “does not change”. In data set [3], the “LDH-5 activity following freeze/thaw” value is “significantly reduced”.
